Structures are written as SMILES.

Sequence of XIAP BIR3 (N-His-Tb-BIR3(241-356, XIAP)) (P98170 241-356): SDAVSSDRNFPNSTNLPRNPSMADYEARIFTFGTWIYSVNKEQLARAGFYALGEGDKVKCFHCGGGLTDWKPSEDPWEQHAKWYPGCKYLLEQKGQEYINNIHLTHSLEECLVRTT

This test addresses XIAP BIR3 (N-His-Tb-BIR3(241-356, XIAP)) (Homo sapiens (Human), UniProt P98170). It is filed as binding. Particulars: 130 nM N-His-Tb-BIR3(241-356, XIAP), 1.4 nM fluoresceinated modified SMAC peptide, 60 minutes room temperature; read-out: XIAP BIR3 FPA IC50.
For the molecule `CN[C@@H](C)C(=O)N[C@H](C(=O)N1C[C@@H](NC(=O)c2ccc(CN(C(=O)[C@@H]3Cc4ccccc4CN3C(=O)[C@@H](NC(=O)[C@H](C)NC)C(C)(C)C)[C@H](C)c3ccccc3C)cc2)C[C@H]1C(=O)N[C@@H]1CCCc2ccccc21)C(C)(C)C` [Example 28, (S)-2-((S)-3,3-Dimethyl-2-((S)-2-(methylamino)propanamido)butanoyl)-N-(4-(((3S,5S)-1-((S)-3,3-dimethyl-2-((S)-2-(methylamino)propanamido)butanoyl)-5-(((R)-1,2,3,4-tetra-hydronaphthalen-1-yl)carbamoyl)pyrrolidin-3-yl)carbamoyl)benzyl)-N-((R)-1-(o-tolyl)ethyl)-1,2,3,4-tetrahydro-isoquinoline-3-carboxamide], the IC50 (commonly the concentration that gives 50% inhibition) came to 160 nM.
The value for `CCOc1ccccc1[C@@H](C)N(Cc1ccc(C(=O)N[C@H]2C[C@@H](C(=O)N[C@@H]3CCCc4ccccc43)N(C(=O)[C@@H](NC(=O)[C@H](C)NC)C(C)(C)C)C2)cc1)C(=O)[C@@H]1Cc2ccccc2CN1C(=O)[C@@H](NC(=O)[C@H](C)NC)C(C)(C)C` [Example 29, (S)-2-((S)-3,3-Dimethyl-2-((S)-2-(methylamino)propanamido)butanoyl)-N-(4-(((3S,5S)-1-((S)-3,3-dimethyl-2-((S)-2-(methyl-amino)propanamido)butanoyl)-5-(((R)-1,2,3,4-tetra-hydronaphthalen-1-yl)carbamoyl)pyrrolidin-3-yl)carbamoyl)benzyl)-N-((R)-1-(2-ethoxyphenyl)ethyl)-1,2,3,4-tetrahydro-isoquinoline-3-carboxamide] was 160 nM.
Regarding `CN[C@@H](C)C(=O)N[C@H](C(=O)N1Cc2ccccc2C[C@H]1CN(C(=O)c1ccc(C(=O)N[C@H]2C[C@@H](C(=O)N[C@@H]3CCCc4ccccc43)N(C(=O)[C@@H](NC(=O)[C@H](C)NC)C(C)(C)C)C2)cc1)[C@H](C)Cc1ccc2ccccc2c1)C(C)(C)C` [Example 30, N^1-(((S)-2-((S)-3,3-Dimethyl-2-((S)-2-(methylamino)propanamido)butanoyl)-1,2,3,4-tetrahydro-isoquinolin-3-yl)methyl)-N^4-((3S,5S)-1-((S)-3,3-dimethyl-2-((S)-2-(methylamino)propanamido)butanoyl)-5-(((R)-1,2,3,4-tetrahydro-naphthalen-1-yl)carbamoyl)pyrrolidin-3-yl)-N^1-((R)-1-(naphthalen-2-yl)propan-2-yl) terephthalamide], the IC50 worked out at 270 nM.
The value for `CN[C@@H](C)C(=O)N[C@H](C(=O)N1Cc2ccccc2C[C@H]1CN(C(=O)c1ccc(C(=O)N[C@H]2C[C@@H](C(=O)N[C@@H]3CCCc4ccccc43)N(C(=O)[C@@H](NC(=O)[C@H](C)NC)C(C)(C)C)C2)cc1)[C@H](C)c1ccc2ccccc2c1)C(C)(C)C` [Example 31, N^1-(((S)-2-((S)-3,3-Dimethyl-2-((S)-2-(methylamino)propanamido)butanoyl)-1,2,3,4-tetrahydro-isoquinolin-3-yl)methyl)-N^4-((3S,5S)-1-((S)-3,3-dimethyl-2-((S)-2-(methyl-amino)propanamido)butanoyl)-5-(((R)-1,2,3,4-tetrahydro-naphthalen-1-yl)carbamoyl)pyrrolidin-3-yl)-N^1-((R)-1-(naphthalen-2-yl)ethyl) terephthalamide] was 250 nM; that for `CN[C@@H](C)C(=O)N[C@H](C(=O)N1Cc2ccccc2C[C@H]1CN(CCc1cccc2ccccc12)C(=O)c1ccc(C(=O)N[C@H]2C[C@@H](C(=O)N[C@@H]3CCCc4ccccc43)N(C(=O)[C@@H](NC(=O)[C@H](C)NC)C(C)(C)C)C2)cc1)C(C)(C)C` [Example 33, N^1-(((S)-2-((S)-3,3-Dimethyl-2-((S)-2-(methylamino)propanamido)butanoyl)-1,2,3,4-tetrahydro-isoquinolin-3-yl)methyl)-N^4-((3S,5S)-1-((S)-3,3-dimethyl-2-((S)-2-(methylamino)propanamido)butanoyl)-5-(((R)-1,2,3,4-tetrahydro-naphthalen-1-yl)carbamoyl)pyrrolidin-3-yl)-N^1-(2-(naphthalen-1-yl)ethyl) terephthalamide] was 120 nM.
Under `CN[C@@H](C)C(=O)N[C@H](C(=O)N1Cc2ccccc2C[C@H]1CN(Cc1cccc2ccccc12)C(=O)c1ccc(C(=O)N[C@H]2C[C@@H](C(=O)N[C@@H]3CCCc4ccccc43)N(C(=O)[C@@H](NC(=O)[C@H](C)NC)C(C)(C)C)C2)cc1)C(C)(C)C` [Example 34, N^1-(((S)-2-((S)-3,3-Dimethyl-2-((S)-2-(methylamino)propanamido)butanoyl)-1,2,3,4-tetrahydro-isoquinolin-3-yl)methyl)-N^4-((3S,5S)-1-((S)-3,3-dimethyl-2-((S)-2-(methylamino)propanamido)butanoyl)-5-(((R)-1,2,3,4-tetrahydro-naphthalen-1-yl)carbamoyl)pyrrolidin-3-yl)-N^1-(naphthalen-1-ylmethyl) terephthalamide] stands 160 nM; under `CN[C@@H](C)C(=O)N[C@H](C(=O)N1Cc2ccccc2C[C@H]1CN(Cc1cccc(C)c1C)C(=O)c1ccc(C(=O)Nc2ccc3c(c2)CN(C(=O)[C@@H](NC(=O)[C@H](C)NC)C(C)(C)C)[C@H](C(=O)N[C@@H]2CCCc4ccccc42)C3)cc1)C(C)(C)C` [Example 35, N^1-(((S)-2-((S)-3,3-Dimethyl-2-((S)-2-(methylamino)propanamido)butanoyl)-1,2,3,4-tetra-hydroisoquinolin-3-yl)methyl)-N^4-((S)-2-((S)-3,3-dimethyl-2-((S)-2-(methylamino)propanamido)butanoyl)-3-(((R)-1,2,3,4-tetrahydro-naphthalen-1-yl)carbamoyl)-1,2,3,4-tetra-hydroisoquinolin-7-yl)-N^1-(2,3-dimethylbenzyl) terephthalamide], 230 nM.
As to `CN[C@@H](C)C(=O)N[C@H](C(=O)N1Cc2ccccc2C[C@H]1CN(Cc1cccc(C)c1C)C(=O)c1ccc(C(=O)N[C@H]2C[C@@H](C(=O)N[C@@H]3CCCc4ccccc43)N(C(=O)[C@@H](NC(=O)[C@H](C)NC)C(C)(C)C)C2)cc1)C(C)(C)C` [Example 36, N^1-(((S)-2-((S)-3,3-Dimethyl-2-((S)-2-(methylamino)propanamido)butanoyl)-1,2,3,4-tetrahydro-isoquinolin-3-yl)methyl)-N^4-((3S,5S)-1-((S)-3,3-dimethyl-2-((S)-2-(methylamino)propanamido)butanoyl)-5-(((R)-1,2,3,4-tetrahydro-naphthalen-1-yl)carbamoyl)pyrrolidin-3-yl)-N^1-(2,3-dimethyl-benzyl) terephthalamide], the IC50 came out at 90 nM.
The value for `CN[C@@H](C)C(=O)N[C@H](C(=O)N1Cc2ccccc2C[C@H]1CN(C(=O)c1ccc(C(=O)N[C@H]2C[C@@H](C(=O)N[C@@H]3CCCc4ccccc43)N(C(=O)[C@@H](NC(=O)[C@H](C)NC)C(C)(C)C)C2)cc1)[C@H](C)c1ccccc1F)C(C)(C)C` [Example 37, N^1-(((S)-2-((S)-3,3-Dimethyl-2-((S)-2-(methylamino)propanamido)butanoyl)-1,2,3,4-tetrahydro-isoquinolin-3-yl)methyl)-N^4-((3S,5S)-1-((S)-3,3-dimethyl-2-((S)-2-(methylamino)propanamido)butanoyl)-5-(((R)-1,2,3,4-tetrahydro-naphthalen-1-yl)carbamoyl)pyrrolidin-3-yl)-N^1-((R)-1-(2-fluorophenyl)ethyl) terephthalamide] was 230 nM.

Source of the values: patent publication US9603889B2, “IAP antagonists” (BRISTOL-MYERS SQUIBB COMPANY, priority 2012, dated 2017).
